Measured values taken from patent US20180028487A1, “DERMATOLOGICAL FORMULATIONS OF 2-(2-ETHOXY-2-OXOETHYL)(METHYL)AMINO-2-OXOETHYL 5-(TETRADECYLOXY)FURAN-2-CARBOXYLATE” (Dermira Inc., priority 2016, published 2018).

Experiments:
[1] = Dose range study, safety and tolerability (Example 5); format: in vivo, human; conditions: 4.0% QD, 7.5% QD and 7.5% BID, 12-week treatment period
Protocol: Safety was assessed through adverse events (AEs), local skin responses (LSRs, determined by the presence and severity of erythema, dryness, peeling, burning/stinging, and pruritus), laboratory tests (serum chemistry, and hematology), vital signs, and physical examinations.

[2] = Stability studies on non-GMP and GMP material; format: physicochemical
Protocol: Stability studies conducted on non-GMP and GMP material have shown chemical stability the compound of Formula (Ia) for 24 months at 5° C. and 25° C./60% Relative Humidity (RH); and for 6 months at 40° C./75% RH.

[3] = Solubility in solvents / vehicle; format: physicochemical
Text: In various embodiments, the dermatologically acceptable vehicle comprises dimethyl isosorbide and one or more alcohols. […] DMI is freely miscible with alcohols such as ethanol, isopropanol (IPA), polyols such as polyethylene glycol (PEG 200 or PEG 400), or a mixture thereof. By adjusting the relevant amounts of DMI and the alcohol(s), the solubility and saturation of the active ingredient in the dermatological formulation can be adjusted to maximize the thermodynamic activity of the active ingredient in the gel. In a specific embodiment, the dermatologically acceptable vehicle comprises, by weight ratios, 50 parts ethanol, 20 parts IPA, 15.5 parts PEG400, and 12.5 parts DMI. The vehicle is typically a clear gel, and bears the same appearance with or without the active ingredient.
In certain embodiment, the crystalline product form is a white crystalline solid with a low-melting point (64-66° C.), having solubility of about 90 mg/g (±5 mg/g) in a solvent system comprising Ethanol/IPA/PEG 400/DMI at 50/20/15.5/12.5 (w/w).

[4] = tested on: acne vulgaris on the face; assay: Dose range study, efficacy (Example 5); format: in vivo, human; conditions: for LS mean change in noninflammatory lesion counts: Week 12; for LS mean change in inflammatory lesion counts / percentage of subjects achieving minimum 2-grade improvement in IGA score: baseline to Week 12
Protocol: Dose ranges were determined in adult subjects with acne vulgaris on the face. The study was a randomized, vehicle controlled, parallel group study designed to assess the efficacy and safety of the active formulations comprising a compound of Formula (Ia) at a concentration of 7.5% BID, 7.5% QD, and 4.0% QD, respectively. The results were compared to those of vehicle formulation (BID or QD) on subjects with moderate to severe facial acne. A total of 420 adult subjects were randomized to active formulations (7.5% BID, 7.5% QD, and 4.0% QD) and vehicle (BID and QD) in a 2:2:2:1:1 fashion. Study treatments continued for 12 weeks. Subjects returned to the study clinic at Weeks 1, 2 (phone call only), 4, 8 and 12 (study exit). Primary efficacy endpoints for this study were 1) the mean absolute change from baseline to Week 12 in inflammatory and noninflammatory lesion counts and 2) the proportion of subjects who achieved a 2-grade improvement in the IGA from baseline to Week 12. Absolute change from baseline to Week 12 in inflammatory and non-inflammatory lesion counts was analyzed using an analysis of covariance (ANCOVA) model with a factor of treatment and the respective baseline lesion count as a covariate. The proportion of subjects who are dichotomized to success (minimum 2-grade improvement from baseline in IGA score) at Week 12 was analyzed using a Cochran-Mantel-Haenszel (CMH) test. Exploratory analyses were conducted for linearity of a dose response for the proportion of subjects dichotomized to an IGA success.

[5] = Dose range study, pharmacokinetics: plasma concentrations (Example 5); format: in vivo, human; conditions: for systemic absorption: topical application at 7.5% strength, twice daily for 12 weeks
Protocol: A subset of study centers enrolled subjects for an assessment of PK. Blood was to be collected from approximately 10 subjects per treatment group. At the Day 1 and Week 8 visits, a predose blood sample was collected prior to the first application of study drug for the day; samples were then collected at 1, 2, 3, and 4 hours after application of study drug.

[6] = cited from earlier work

In the case of `CCCCCCCCCCCCCCOc1ccc(C(=O)OCC(=O)N(C)CC(=O)OCC)o1` [Formula (Ia), 2-((2-ethoxy-2-oxoethyl)(methyl)amino)-2-oxoethyl 5 (tetradecyloxy) furan-2-carboxylate], the tolerability [1] is reported as “well tolerated”, the chemical stability ([2]; 5° C.) is reported as 24 months and the “stability of the crystal form” value ([2]; 5° C.) is reported as “up to 36 months”. For the same compound, the “stability of the crystal form” value ([2]; 25° C./60% RH) was “up to 36 months”, the chemical stability ([2]; 25° C./60% Relative Humidity (RH)) was 24 months and the “stability of the crystal form” value ([2]; 30° C./65% RH) was “up to 27 months”. The chemical stability ([2]; 40° C./75% RH) was 6 months, the solubility ([3]; crystalline product form, solvent system Ethanol/IPA/PEG 400/DMI at 50/20/15.5/12.5 (w/w)) was “about 90 mg/g” and the solubility ([3]; in dimethyl isosorbide (DMI)) was “about 125 mg/g”. The “LS mean change in noninflammatory lesion counts” value ([4]; 4.0% QD) was −15.3, the “LS mean change in inflammatory lesion counts” value ([4]; 4.0% QD) was −14.6 and the “percentage of subjects achieving minimum 2-grade improvement in IGA score” value ([4]; 4.0% QD) was 21.6%. For the same compound, the “LS mean change in noninflammatory lesion counts” value ([4]; 7.5% BID) was −17.5, the “LS mean change in inflammatory lesion counts” value ([4]; 7.5% BID) was −15.0 and the “percentage of subjects achieving minimum 2-grade improvement in IGA score” value ([4]; 7.5% BID) was 25.9%. For the same compound, the “LS mean change in noninflammatory lesion counts” value ([4]; 7.5% QD) was −13.4, the “LS mean change in inflammatory lesion counts” value ([4]; 7.5% QD) was −14.5 and the “plasma concentration of Compound of Formula (Ia)” value ([5]; Day 1, topical, all but one subject) was “undetectable”. For the same compound, the “plasma concentration of Compound of Formula (Ia)” value ([5]; Week 8, all tested subjects) was “undetectable”, the concentration at 2 h ([5]; human, plasma, topical, Day 1, one subject, one time point (2 hours post-dosing), read-out: plasma concentration of Compound of Formula (Ia)) was 0.304 ng/mL and the systemic absorption [5] was “little or no”.

In the case of `CCCCCCCCCCCCCCOc1ccc(C(=O)O)o1` [TOFA, 5-(tetradecyloxy)-2-furoic acid, reference compound], the “bioavailability through the skin” value [6] is listed as “poor” and the systemic absorption [5] is listed as “little or no”.
